These are literature values, as cited in patent US20080057086A1, “COLON-TARGETED ORAL FORMULATIONS OF CYTIDINE ANALOGS” (PHARMION CORPORATION, priority 2006, published 2008).

The test system of the series is total hemoglobin, fetal hemoglobin and F cells. The note with it: sickle cell patients; oral THU 200 mg/d alone; cited from earlier work.

On to `O=C1NC(O)CCN1[C@@H]1O[C@H](CO)[C@@H](O)[C@H]1O` (stereo partly shown) [THU, tetrahydrouridine], for which the F reticulocyte production entry is on record as “did not result in increased F reticulocyte production”.
